Data as given in patent US20220380383A1, “NEUROPROTECTIVE PDI MODULATING SMALL MOLECULES AND METHODS OF USE THEREOF” (THE TRUSTEES OF COLUMBIA UNIVERSITY IN THE CITY OF NEW YORK, priority 2018, published 2022).

Assays:
wild-type PDIa = molecular target: T1, wild-type PDIa (Homo sapiens, UniProt P07237); experiment: MALDI-TOF mass spectrometry with wild-type PDIa; format: binding
T1 construct: made in house; host or cells: Escherichia coli BL21-Gold (DE3)
Source text: As mentioned, we synthesized several fluorine-containing analogs of LOC14 (analogs LC-43 and LC-40). Addition of fluorine was the only modification that was tolerated at the ortho position without a complete loss of activity in cells and in targeting PDI in vitro (Table 9). […] We hypothesized that these compounds might be binding to PDI covalently, and therefore would not show heat evolution by calorimetry. To test this hypothesis, we conducted MALDI-TOF mass-spectrometry experiments with wild-type PDIa and LC-43. […] This confirmed that LC-43 did indeed bind to PDIa, and that this binding was […]. The lack of binding by ITC might be again caused because LC-43 interaction with PDI is entropy-driven with small enthalpic changes. […] Additionally, we evaluated LC-43 using a genetically encoded redox reporter transfected into neurons. […] In contrast, treatment with the non-selective reducing agent dithiothreitol (DTT) produces an immediate and dramatic reduction in the roGFP2 fluorescence ratio that leads rapidly to cell degeneration and death (FIG. 16D). […] This single fluorine atom substitution in LOC14 structure seems to be an improvement in the design of compounds with more favorable drug properties.

[1] = tested on: neuronal redox state (roGFP2); experiment: roGFP2 redox reporter in primary neurons; format: cell-based
Method: […]. Rat coronal brain slice explants co-transfected with YFP and Tau-4R (FIG. 16B) or striatal brain slice explants co-transfected with YFP and mHTT (FIG. 16C) were treated with LC-43 or DMSO carrier-only for 3 days. The respective regions of each brain slice were then scored for numbers of healthy (FIG. 16B) pyramidal or (FIG. 16C) medium spiny neurons remaining. Data are normalized to the negative control condition set to 100% and plotted as means±SEM. In FIG. 16D, The confocal images shown are maximal z-stacks of 0.5 μm steps (˜20 images per stack). (Bottom) Reduction of neuronal redox state by LC-43. Left, Primary neurons were co-transfected with mCherry (to positively identify transfected neurons) and the genetically encoded ratiometric redox reporter roGFP2. Four days later, the culture medium was changed into an identical formulation except without conventional antioxidant additives. 24 hours after this medium change, LOC-43 or DMSO carrier-only were added to the neurons and images were taken after 30 minutes or 24 hours of treatment as indicated. Imaging was done using a Leica SP5 inverted confocal microscope through a 63× water-immersion objective. Images of 40 individual neurons for each condition were collected at 405 and 488 nm and analysis of the 405/488 ratio for each image pair was done using CellProfiler (Broad Institute).
As mentioned, we synthesized several fluorine-containing analogs of LOC14 (analogs LC-43 and LC-40). Addition of fluorine was the only modification that was tolerated at the ortho position without a complete loss of activity in cells and in targeting PDI in vitro (Table 9). […] Additionally, we evaluated LC-43 using a genetically encoded redox reporter transfected into neurons. […] In contrast, treatment with the non-selective reducing agent dithiothreitol (DTT) produces an immediate and dramatic reduction in the roGFP2 fluorescence ratio that leads rapidly to cell degeneration and death (FIG. 16D). […]

Adenosine A2A = Adenosine A2A (Homo sapiens, UniProt P29274); experiment: Off-target panel, Adenosine A2A; format: binding; details: Conc. 3 μM
Adrenergic α1A = Adrenergic α1A (Rattus norvegicus, UniProt P43140); experiment: Off-target panel, Adrenergic α1A; format: binding; details: Conc. 3 μM
Adrenergic α1B = Adrenergic α1B (Rattus norvegicus, UniProt P15823); experiment: Off-target panel, Adrenergic α1B; format: binding; details: Conc. 3 μM
Adrenergic β2 = Adrenergic β2 (Homo sapiens, UniProt P07550); experiment: Off-target panel, Adrenergic β2; format: binding; details: Conc. 3 μM
Dopamine D1 = Dopamine D1 (Homo sapiens, UniProt P21728); experiment: Off-target panel, Dopamine D1; format: binding; details: Conc. 3 μM
Histamine H1 = Histamine H1 (Homo sapiens, UniProt P35367); experiment: Off-target panel, Histamine H1; format: binding; details: Conc. 3 μM
Muscarinic M2 = Muscarinic M2 (Homo sapiens, UniProt P08172); experiment: Off-target panel, Muscarinic M2; format: binding; details: Conc. 3 μM
Muscarinic M3 = Muscarinic M3 (Homo sapiens, UniProt P20309); experiment: Off-target panel, Muscarinic M3; format: binding; details: Conc. 3 μM
[2] = molecular target: Nicotinic Acetylcholine α1, Bungarotoxin (Homo sapiens, UniProt P02708+P07510+Q07001); experiment: Off-target panel, Nicotinic Acetylcholine α1; format: binding; details: read-out: % Inh.
Prostanoid EP4 = Prostanoid EP4 (Homo sapiens, UniProt P35408); experiment: Off-target panel, Prostanoid EP4; format: binding; details: Conc. 3 μM
GR = molecular target: T2, GR (Homo sapiens, UniProt P04150); experiment: Safety47 panel nuclear hormone receptor GR; format: cell-based; details: 3 μM
T2 construct: CEREP (CRO panel)
Source text: (§1) LOC14 was also submitted for testing in CEREP's Safety47 panel. CEREP is a CRO specializing in preclinical research, discovery and development of new pharmaceutical drugs.

NET = molecular target: T3, NET (Homo sapiens, UniProt P23975); experiment: Safety47 panel transporter NET; format: cell-based; details: Blocker mode; 3 μM
T3 construct: CEREP (CRO panel)
Source text: as §1

nAChR(a4/b2) = molecular target: T4, nAChR(a4/b2) (Homo sapiens, UniProt P17787+P43681); experiment: Safety47 panel ion channel nAChR(a4/b2); format: cell-based; details: 3 μM
T4 construct: CEREP (CRO panel)
Source text: as §1

NAV1.5 = molecular target: T5, NAV1.5 (Homo sapiens, UniProt Q14524); experiment: Safety47 panel ion channel NAV1.5; format: cell-based; details: Blocker mode; 3 μM
T5 construct: CEREP (CRO panel)
Source text: as §1

NMDAR (1A/2B) = molecular target: T6, NMDAR (1A/2B) (Homo sapiens, UniProt Q05586+Q13224); experiment: Safety47 panel ion channel NMDAR (1A/2B); format: cell-based; details: 3 μM
T6 construct: CEREP (CRO panel)
Source text: as §1

MAOA = molecular target: T7, MAOA (Homo sapiens, UniProt P21397); experiment: Safety47 panel non-kinase enzyme MAOA; format: biochemical; details: Inhibitor mode; 3 μM
T7 construct: CEREP (CRO panel)
Source text: as §1

47 human targets = experiment: CEREP Safety47 panel (summary); details: 3 μM
Source text: as §1

Potassium Channel hERG = Potassium Channel hERG (Homo sapiens, UniProt Q12809)

T4 sequence (P43681 29-627 limits assumed): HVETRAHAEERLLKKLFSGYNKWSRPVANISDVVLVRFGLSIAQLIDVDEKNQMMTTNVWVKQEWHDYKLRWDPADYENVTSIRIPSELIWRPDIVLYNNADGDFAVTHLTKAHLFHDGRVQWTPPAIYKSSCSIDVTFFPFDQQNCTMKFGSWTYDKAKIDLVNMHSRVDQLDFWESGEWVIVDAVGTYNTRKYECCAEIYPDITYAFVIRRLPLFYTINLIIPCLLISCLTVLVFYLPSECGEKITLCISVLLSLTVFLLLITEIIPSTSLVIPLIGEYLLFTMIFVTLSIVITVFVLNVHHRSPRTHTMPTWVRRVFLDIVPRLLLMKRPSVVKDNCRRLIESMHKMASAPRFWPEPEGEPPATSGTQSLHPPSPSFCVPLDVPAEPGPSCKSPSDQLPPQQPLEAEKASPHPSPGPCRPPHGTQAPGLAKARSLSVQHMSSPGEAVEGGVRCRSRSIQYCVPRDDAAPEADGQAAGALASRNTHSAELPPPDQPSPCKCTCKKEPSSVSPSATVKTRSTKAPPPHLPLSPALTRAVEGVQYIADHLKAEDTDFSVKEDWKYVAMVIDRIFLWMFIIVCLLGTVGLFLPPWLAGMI
T4 sequence (P17787 26-502): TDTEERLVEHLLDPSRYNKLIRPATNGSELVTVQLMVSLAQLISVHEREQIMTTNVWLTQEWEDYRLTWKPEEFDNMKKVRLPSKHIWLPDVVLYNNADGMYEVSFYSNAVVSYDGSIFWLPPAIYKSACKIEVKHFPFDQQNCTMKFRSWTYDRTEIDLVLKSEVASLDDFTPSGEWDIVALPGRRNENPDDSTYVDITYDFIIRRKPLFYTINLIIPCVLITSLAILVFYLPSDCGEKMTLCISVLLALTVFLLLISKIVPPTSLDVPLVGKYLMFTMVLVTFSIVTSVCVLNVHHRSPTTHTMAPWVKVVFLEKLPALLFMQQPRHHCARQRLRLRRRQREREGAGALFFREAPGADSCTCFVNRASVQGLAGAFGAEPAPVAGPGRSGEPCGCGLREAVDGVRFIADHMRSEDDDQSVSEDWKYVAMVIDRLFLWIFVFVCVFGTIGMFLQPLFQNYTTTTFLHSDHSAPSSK
T2 sequence (P04150 whole entry): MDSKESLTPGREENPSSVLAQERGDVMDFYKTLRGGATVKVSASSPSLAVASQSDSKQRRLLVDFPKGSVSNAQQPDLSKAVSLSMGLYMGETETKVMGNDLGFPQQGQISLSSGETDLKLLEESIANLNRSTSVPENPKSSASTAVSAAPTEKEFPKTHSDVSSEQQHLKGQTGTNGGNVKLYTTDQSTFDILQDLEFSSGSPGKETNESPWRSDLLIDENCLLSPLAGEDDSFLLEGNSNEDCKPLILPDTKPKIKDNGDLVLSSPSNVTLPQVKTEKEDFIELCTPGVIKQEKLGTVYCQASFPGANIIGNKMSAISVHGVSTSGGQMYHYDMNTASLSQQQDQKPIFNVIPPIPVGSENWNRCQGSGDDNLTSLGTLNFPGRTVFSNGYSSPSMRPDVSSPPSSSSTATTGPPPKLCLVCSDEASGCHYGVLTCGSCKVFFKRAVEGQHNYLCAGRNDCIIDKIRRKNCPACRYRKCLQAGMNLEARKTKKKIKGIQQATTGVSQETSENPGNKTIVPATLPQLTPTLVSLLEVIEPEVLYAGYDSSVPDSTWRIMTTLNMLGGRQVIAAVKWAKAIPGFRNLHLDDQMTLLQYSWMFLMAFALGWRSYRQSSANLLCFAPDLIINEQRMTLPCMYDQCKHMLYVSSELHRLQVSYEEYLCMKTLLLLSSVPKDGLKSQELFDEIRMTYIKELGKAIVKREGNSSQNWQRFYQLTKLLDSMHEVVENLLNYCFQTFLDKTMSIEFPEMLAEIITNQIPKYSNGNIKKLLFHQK
T6 sequence (Q13224 27-1484, other chains not shown): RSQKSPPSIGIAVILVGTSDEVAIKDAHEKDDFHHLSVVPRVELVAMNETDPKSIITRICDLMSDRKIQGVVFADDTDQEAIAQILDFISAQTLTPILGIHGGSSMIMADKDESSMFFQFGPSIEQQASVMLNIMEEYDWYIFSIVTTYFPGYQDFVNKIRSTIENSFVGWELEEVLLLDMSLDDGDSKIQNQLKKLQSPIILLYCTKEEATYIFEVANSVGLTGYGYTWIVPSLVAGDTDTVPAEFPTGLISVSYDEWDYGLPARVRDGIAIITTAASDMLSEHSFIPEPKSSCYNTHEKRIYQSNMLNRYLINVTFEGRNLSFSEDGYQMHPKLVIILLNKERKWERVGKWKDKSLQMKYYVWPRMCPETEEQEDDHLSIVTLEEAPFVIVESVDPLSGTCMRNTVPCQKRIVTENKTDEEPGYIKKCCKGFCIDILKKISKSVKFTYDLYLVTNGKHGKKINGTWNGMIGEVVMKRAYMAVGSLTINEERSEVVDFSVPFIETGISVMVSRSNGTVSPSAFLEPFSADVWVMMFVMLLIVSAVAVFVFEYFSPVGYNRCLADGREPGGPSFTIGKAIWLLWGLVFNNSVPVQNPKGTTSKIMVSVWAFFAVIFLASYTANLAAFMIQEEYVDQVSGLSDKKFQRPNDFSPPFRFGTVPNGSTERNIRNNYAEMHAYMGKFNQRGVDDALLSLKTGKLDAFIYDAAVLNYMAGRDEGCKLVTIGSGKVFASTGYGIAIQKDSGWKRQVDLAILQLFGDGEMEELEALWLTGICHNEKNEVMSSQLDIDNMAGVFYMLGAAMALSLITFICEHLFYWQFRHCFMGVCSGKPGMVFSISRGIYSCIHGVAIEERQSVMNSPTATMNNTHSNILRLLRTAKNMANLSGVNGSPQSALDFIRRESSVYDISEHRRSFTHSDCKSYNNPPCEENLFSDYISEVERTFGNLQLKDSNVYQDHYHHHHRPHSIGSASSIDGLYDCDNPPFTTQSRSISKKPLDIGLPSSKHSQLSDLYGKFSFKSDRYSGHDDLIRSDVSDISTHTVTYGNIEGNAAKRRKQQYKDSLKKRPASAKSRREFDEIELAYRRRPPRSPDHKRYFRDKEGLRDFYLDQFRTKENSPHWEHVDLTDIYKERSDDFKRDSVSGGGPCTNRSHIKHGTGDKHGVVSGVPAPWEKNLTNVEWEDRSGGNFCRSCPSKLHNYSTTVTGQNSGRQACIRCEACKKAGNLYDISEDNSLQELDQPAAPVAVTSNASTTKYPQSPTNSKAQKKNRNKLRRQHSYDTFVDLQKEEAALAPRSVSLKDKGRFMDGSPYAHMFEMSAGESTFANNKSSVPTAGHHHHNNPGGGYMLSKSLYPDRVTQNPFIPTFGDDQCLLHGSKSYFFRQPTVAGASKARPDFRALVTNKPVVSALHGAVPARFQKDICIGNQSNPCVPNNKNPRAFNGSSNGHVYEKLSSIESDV
Sequence of Adrenergic β2 (P07550 whole entry): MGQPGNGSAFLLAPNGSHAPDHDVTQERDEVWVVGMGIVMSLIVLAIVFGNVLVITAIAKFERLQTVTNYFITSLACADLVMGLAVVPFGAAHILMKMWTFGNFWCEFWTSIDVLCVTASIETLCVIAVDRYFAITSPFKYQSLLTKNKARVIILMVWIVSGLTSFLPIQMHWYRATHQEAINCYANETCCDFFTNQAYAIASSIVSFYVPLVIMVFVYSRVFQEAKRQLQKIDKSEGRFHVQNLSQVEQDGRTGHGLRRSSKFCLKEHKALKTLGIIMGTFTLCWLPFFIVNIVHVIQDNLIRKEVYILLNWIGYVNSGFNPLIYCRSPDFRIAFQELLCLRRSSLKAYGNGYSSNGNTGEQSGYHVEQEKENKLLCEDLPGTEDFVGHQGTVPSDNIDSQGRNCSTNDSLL
Sequence of Dopamine D1 (P21728 whole entry): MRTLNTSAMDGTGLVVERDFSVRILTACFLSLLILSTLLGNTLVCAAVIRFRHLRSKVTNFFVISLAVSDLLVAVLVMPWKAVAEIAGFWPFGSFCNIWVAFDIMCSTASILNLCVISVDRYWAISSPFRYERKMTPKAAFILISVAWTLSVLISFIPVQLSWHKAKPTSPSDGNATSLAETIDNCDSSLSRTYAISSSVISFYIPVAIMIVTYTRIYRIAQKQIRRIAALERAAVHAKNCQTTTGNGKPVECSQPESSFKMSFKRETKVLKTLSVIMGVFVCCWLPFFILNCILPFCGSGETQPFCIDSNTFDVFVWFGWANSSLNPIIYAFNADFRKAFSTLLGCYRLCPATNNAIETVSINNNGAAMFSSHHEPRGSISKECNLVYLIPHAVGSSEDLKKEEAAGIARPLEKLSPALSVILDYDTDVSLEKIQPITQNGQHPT
T3 sequence (P23975 whole entry): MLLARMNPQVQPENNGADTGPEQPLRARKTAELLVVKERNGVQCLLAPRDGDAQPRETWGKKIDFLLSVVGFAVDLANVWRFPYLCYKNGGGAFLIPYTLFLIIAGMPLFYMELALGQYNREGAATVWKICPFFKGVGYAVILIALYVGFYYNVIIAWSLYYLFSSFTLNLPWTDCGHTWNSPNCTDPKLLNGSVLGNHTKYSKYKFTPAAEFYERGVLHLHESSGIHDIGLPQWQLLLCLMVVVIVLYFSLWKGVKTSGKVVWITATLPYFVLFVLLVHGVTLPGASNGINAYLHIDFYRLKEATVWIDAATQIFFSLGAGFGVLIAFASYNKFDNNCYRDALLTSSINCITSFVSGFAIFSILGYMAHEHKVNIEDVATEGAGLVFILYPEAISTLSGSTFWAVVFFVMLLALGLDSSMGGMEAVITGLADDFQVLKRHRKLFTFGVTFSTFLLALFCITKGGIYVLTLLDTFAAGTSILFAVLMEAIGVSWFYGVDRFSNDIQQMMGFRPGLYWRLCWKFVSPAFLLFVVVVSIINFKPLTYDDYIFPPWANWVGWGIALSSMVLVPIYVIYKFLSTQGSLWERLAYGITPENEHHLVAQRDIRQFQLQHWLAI
T1 sequence (P07237 18-134): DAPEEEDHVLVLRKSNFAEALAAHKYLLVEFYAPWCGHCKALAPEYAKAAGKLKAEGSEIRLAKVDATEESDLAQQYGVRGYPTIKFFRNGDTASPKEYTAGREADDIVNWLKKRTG

In the case of `O=C(C1CC1)N1CCN(Cn2sc3c(F)cccc3c2=O)CC1` [LC-43], the “change in mass of wild-type PDIa (MALDI-TOF)” value (wild-type PDIa) is reported as “no change in mass”, the “neuronal redox state (roGFP2)” value ([1]; 30 min treatment) is reported as “no effect” and the “neuronal redox state (roGFP2)” value ([1]; 24 h treatment, 10 μM) is reported as “measurable and significant reduction in neuronal redox state”.

For `O=C(C1CC1)N1CCN(Cn2sc3ccccc3c2=O)CC1` [LOC14], the inhibition at 3 µM (Adenosine A2A) was -4%, the inhibition at 3 µM (Adrenergic α1A) was -14% and the inhibition at 3 µM (Adrenergic α1B) was 2%. The inhibition at 3 µM (Adrenergic β2) was 8%, the inhibition at 3 µM (Dopamine D1) was 34% and the inhibition at 3 µM (Histamine H1) was 27%. It also gave an inhibition at 3 µM (Muscarinic M2) of -3%, an inhibition at 3 µM (Muscarinic M3) of -4% and an inhibition at 3 µM [2] of 11%. It also gave an inhibition at 3 µM (Prostanoid EP4) of 32%, an Average (GR; Agonist mode) of 0.0 and an Average (GR; Antagonist mode) of 0.1. For the same compound, the Average (NET) was 0.0, the Average (nAChR(a4/b2); Blocker mode) was 10.1 and the Average (nAChR(a4/b2); Opener mode) was 0.0. For the same compound, the Average (NAV1.5) was 7.0, the Average (NMDAR (1A/2B); Blocker mode) was 0.0 and the Average (NMDAR (1A/2B); Opener mode) was 1.7. For the same compound, the Average (MAOA) was 9.9, the “off-target effects in Safety47 panel” value (47 human targets) was “no significant off-target effects” and the “binding to the hERG receptor” value (Potassium Channel hERG) was “does not bind to the hERG receptor”.
